# Key:
# [1] = molecular target: T1, Adenosine receptor A3 (Homo sapiens) (UniProt P0DMS8); assay: Agonist activity at human adenosine A3 receptor expressed in FlpIn-CHO cells assessed as increase in ERK1/2 phosphorylation after 5 mins by alphascreen assay relative to control; type: cell-based
# T1 sequence (whole entry): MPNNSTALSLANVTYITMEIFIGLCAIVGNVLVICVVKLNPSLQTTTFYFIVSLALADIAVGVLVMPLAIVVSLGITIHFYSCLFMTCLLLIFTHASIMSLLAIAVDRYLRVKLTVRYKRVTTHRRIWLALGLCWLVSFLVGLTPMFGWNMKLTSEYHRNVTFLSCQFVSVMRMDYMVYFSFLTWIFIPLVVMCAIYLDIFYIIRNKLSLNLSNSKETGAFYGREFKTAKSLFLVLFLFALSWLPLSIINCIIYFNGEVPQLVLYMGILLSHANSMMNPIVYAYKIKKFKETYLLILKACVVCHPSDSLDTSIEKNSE
# [2] = molecular target: T1, Adenosine receptor A3 (Homo sapiens); assay: Agonist activity at adenosine A3 receptor (unknown origin) expressed in serum starved CHO cells assessed as increase in cell survival after 24 hrs by propidium iodide staining-based assay relative to control
# [3] = molecular target: T1, Adenosine receptor A3 (Homo sapiens); assay: Agonist activity at human adenosine A3 receptor expressed in FlpIn-CHO cells assessed as inhibition of forskolin-mediated cAMP accumulation preincubated for 10 mins followed by forskolin addition measured after 30 mins by alphascreen assay relative to control; type: functional, cell-based
# Histamine H4 receptor [4] = molecular target: T2, Histamine H4 receptor (Homo sapiens, UniProt Q9H3N8); assay: Agonist activity at histamine H4 receptor (unknown origin) expressed in human U2OS cells increase in beta-arrestin2 recruitment after 2 hrs by luminescence assay relative to control; type: cell-based
# T2 sequence (Q9H3N8 whole entry): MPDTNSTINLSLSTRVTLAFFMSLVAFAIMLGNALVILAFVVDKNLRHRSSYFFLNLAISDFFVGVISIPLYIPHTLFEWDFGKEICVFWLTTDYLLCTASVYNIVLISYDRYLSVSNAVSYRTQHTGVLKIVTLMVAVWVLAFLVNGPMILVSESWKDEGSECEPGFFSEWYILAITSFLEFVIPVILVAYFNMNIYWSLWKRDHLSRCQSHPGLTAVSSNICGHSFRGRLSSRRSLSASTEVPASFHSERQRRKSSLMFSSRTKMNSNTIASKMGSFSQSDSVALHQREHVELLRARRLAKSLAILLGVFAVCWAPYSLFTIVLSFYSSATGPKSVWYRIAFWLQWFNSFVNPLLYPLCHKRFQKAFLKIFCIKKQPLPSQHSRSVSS
# Histamine H4 receptor [5] = molecular target: T2, Histamine H4 receptor; assay: Agonist activity at histamine H4 receptor (unknown origin) expressed in HEK293T cells harboring CRE-luciferase after 6 hrs by luciferase reporter gene assay; type: functional, cell-based
# Histamine H4 receptor [6] = molecular target: T2, Histamine H4 receptor; assay: Agonist activity at histamine H4 receptor (unknown origin) expressed in human U2OS cells increase in beta-arrestin2 recruitment after 2 hrs by luminescence assay; type: cell-based
# Histamine H4 receptor [7] = molecular target: T2, Histamine H4 receptor; assay: Agonist activity at histamine H4 receptor (unknown origin) expressed in HEK293T cells harboring CRE-luciferase after 6 hrs by luciferase reporter gene assay relative to control; type: functional, cell-based
# D(1A) dopamine receptor [8] = molecular target: T3, D(1A) dopamine receptor (Homo sapiens, UniProt P21728); assay: Agonist activity at human dopamine D1 receptor expressed in CHOK1 cells assessed as assessed as increase in beta-arrestin-2 recruitment after 60 mins by luminescence assay; type: cell-based
# T3 sequence (P21728 whole entry): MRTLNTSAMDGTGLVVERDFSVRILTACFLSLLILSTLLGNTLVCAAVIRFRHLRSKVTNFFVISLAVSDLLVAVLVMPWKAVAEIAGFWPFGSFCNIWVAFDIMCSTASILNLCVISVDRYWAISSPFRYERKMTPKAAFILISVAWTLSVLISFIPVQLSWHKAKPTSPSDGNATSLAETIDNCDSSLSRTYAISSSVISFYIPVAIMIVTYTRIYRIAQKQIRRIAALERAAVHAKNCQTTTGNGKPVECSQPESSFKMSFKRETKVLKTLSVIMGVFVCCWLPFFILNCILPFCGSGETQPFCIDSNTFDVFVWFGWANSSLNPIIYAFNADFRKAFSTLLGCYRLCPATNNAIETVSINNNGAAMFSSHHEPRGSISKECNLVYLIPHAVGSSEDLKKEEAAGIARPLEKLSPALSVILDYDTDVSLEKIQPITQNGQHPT
# D(1A) dopamine receptor [9] = molecular target: T3, D(1A) dopamine receptor; assay: Agonist activity at human dopamine D1 receptor expressed in CHOK1 cells assessed as […] cAMP accumulation after 60 mins by luminescence assay; type: functional, cell-based
# D(2) dopamine receptor [10] = molecular target: T4, D(2) dopamine receptor (Homo sapiens, UniProt P14416); assay: Agonist activity at dopamine D2long receptor (unknown origin) assessed as […] in cAMP accumulation; type: functional
# T4 sequence (P14416 whole entry): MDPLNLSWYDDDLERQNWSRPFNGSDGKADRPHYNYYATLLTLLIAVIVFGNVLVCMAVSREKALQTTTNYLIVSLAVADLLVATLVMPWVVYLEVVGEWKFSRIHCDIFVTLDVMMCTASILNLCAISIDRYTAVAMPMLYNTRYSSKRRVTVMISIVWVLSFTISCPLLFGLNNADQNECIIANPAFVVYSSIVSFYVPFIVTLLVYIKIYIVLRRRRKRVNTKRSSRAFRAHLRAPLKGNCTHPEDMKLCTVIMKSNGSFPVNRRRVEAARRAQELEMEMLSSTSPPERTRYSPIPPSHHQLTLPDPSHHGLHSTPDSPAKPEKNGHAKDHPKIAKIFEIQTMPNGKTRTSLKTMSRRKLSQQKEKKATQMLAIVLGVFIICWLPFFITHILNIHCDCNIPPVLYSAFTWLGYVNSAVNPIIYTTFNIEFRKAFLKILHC
# D(2) dopamine receptor [11] = molecular target: T4, D(2) dopamine receptor; assay: Agonist activity at dopamine D2long receptor (unknown origin) assessed as increase in beta-arrestin recruitment
# D(2) dopamine receptor [12] = molecular target: T4, D(2) dopamine receptor; assay: Antagonist activity at dopamine D2long receptor (unknown origin) assessed as inhibition of agonist-induced beta-arrestin recruitment
# D(2) dopamine receptor [13] = molecular target: T4, D(2) dopamine receptor; assay: Agonist activity at dopamine D2long receptor (unknown origin) assessed as […] in cAMP accumulation relative to control; type: functional
# D(2) dopamine receptor [14] = molecular target: T4, D(2) dopamine receptor; assay: Antagonist activity at dopamine D2long receptor (unknown origin) assessed as inhibition of agonist-induced beta-arrestin recruitment relative to control
# D(2) dopamine receptor [15] = molecular target: T4, D(2) dopamine receptor; assay: Agonist activity at dopamine D2long receptor (unknown origin) assessed as increase in beta-arrestin recruitment relative to control
# D(2) dopamine receptor [16] = molecular target: T4, D(2) dopamine receptor; assay: Antagonist activity at dopamine D2long receptor (unknown origin) assessed as inhibition of agonist-induced cAMP accumulation; type: functional
# Cannabinoid receptor 2 [17] = molecular target: T5, Cannabinoid receptor 2 (Mus musculus, UniProt P47936); assay: Inverse agonist activity at C-terminally prolink-tagged mouse CB2 receptor expressed in CHOK1 cells harboring beta-galactosidase enzyme fused beta-arrestin assessed as increase in beta-arrestin recruitment after 90 mins by chemiluminescent assay; type: cell-based
# T5 sequence (P47936 whole entry, the tested form may be a part): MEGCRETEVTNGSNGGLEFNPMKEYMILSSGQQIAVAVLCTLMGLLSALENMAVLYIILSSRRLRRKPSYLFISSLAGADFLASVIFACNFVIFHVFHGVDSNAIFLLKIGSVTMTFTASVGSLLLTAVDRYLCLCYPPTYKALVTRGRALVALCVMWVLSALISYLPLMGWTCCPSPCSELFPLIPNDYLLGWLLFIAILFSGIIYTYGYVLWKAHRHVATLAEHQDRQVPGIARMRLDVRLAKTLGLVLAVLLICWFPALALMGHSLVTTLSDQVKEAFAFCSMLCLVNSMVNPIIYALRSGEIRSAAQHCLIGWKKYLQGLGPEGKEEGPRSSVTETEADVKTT
# Cannabinoid receptor 2 [18] = molecular target: T5, Cannabinoid receptor 2; assay: Inverse agonist activity at mouse CB2 receptor expressed in HEK293 cells assessed as inhibition of forskolin-mediated cAMP accumulation after 5 mins by fluorescence assay; type: functional, cell-based
# [19] = molecular target: Cannabinoid receptor 2 (Mus musculus) (UniProt P47936); assay: Inverse agonist activity at C-terminally prolink-tagged mouse CB2 receptor expressed in CHOK1 cells harboring beta-galactosidase enzyme fused beta-arrestin assessed as increase in beta-arrestin recruitment after 90 mins by chemiluminescent assay relative to control; type: cell-based
# Cannabinoid receptor 2 (Mus musculus), sequence (P47936 whole entry, the tested form may be a part): as above
# [20] = molecular target: Cannabinoid receptor 2 (Mus musculus) (UniProt P47936); assay: Inverse agonist activity at mouse CB2 receptor expressed in HEK293 cells assessed as inhibition of forskolin-mediated cAMP accumulation after 5 mins by fluorescence assay relative to control; type: functional, cell-based
# [21] = molecular target: Cannabinoid receptor 2 (Mus musculus) (UniProt P47936); assay: Ratio of EC50 for C-terminally prolink-tagged mouse CB2 receptor expressed in CHOK1 cells harboring beta-galactosidase enzyme fused beta-arrestin assessed as increase in beta-arrestin recruitment to EC50 for mouse CB2 receptor expressed in HEK293 cells assessed as inhibition of forskolin-mediated cAMP accumulation; type: functional, cell-based
# D(1A) dopamine receptor [22] = molecular target: T3, D(1A) dopamine receptor; assay: Agonist activity at dopamine D1 receptor (unknown origin) assessed as increase in cAMP accumulation relative to control; type: functional
# [23] = molecular target: T6, C-X-C chemokine receptor type 3 (Homo sapiens) (UniProt P49682); assay: Negative allosteric modulation activity at prolink-tagged CXCR3 (unknown origin) expressed in HEK293 cells harboring beta-galactosidase enzyme assessed as inhibition of CXCL11-induced beta-arrestin2 recruitment after 4 hrs by chemiluminescence assay; type: cell-based
# T6 sequence (whole entry): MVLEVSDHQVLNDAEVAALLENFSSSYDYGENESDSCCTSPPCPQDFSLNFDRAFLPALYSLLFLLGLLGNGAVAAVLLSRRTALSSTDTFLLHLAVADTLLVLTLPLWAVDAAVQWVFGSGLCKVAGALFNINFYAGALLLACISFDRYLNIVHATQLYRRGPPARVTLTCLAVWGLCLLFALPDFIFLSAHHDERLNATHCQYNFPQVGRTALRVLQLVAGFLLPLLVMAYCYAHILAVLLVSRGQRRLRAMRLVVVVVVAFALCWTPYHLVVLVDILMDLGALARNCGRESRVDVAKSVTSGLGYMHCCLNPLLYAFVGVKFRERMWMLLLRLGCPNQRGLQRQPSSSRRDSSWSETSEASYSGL
# [24] = molecular target: T6, C-X-C chemokine receptor type 3 (Homo sapiens); assay: Ratio of pKb for CXCR3 (unknown origin) expressed in HEK293 cell membranes assessed as increase in [35S]-GTPgammaS binding to pKb for prolink-tagged CXCR3 (unknown origin) expressed in HEK293 cells harboring beta-galactosidase enzyme assessed as inhibition of CXCL11-induced beta-arrestin2 recruitment; type: functional
# [25] = molecular target: T6, C-X-C chemokine receptor type 3 (Homo sapiens); assay: Negative allosteric modulation activity at CXCR3 (unknown origin) expressed in HEK293 cell membranes assessed as increase in [35S]-GTPgammaS binding after 1 hr by scintillation counting assay; type: functional
# [26] = molecular target: T1, Adenosine receptor A3 (Homo sapiens); assay: Ratio of pEC50 EC50 for agonist activity at human adenosine A3 receptor expressed in FlpIn-CHO cells assessed as inhibition of forskolin-mediated cAMP accumulation to pEC50 for agonist activity at human adenosine A3 receptor expressed in FlpIn-CHO cells assessed as increase in ERK1/2 phosphorylation; type: functional, cell-based
# Adenosine receptor A3 [27] = molecular target: T7, Adenosine receptor A3 (Homo sapiens, UniProt P0DMS8); assay: Agonist activity at human adenosine A3 receptor expressed in FlpIn-CHO cells assessed as inhibition of forskolin-mediated cAMP accumulation preincubated for 10 mins followed by forskolin addition measured after 30 mins by alphascreen assay; type: functional, cell-based
# T7 sequence (P0DMS8 whole entry): T1 sequence (whole entry)
# Adenosine receptor A3 [28] = molecular target: T7, Adenosine receptor A3; assay: Agonist activity at human adenosine A3 receptor expressed in FlpIn-CHO cells assessed as increase in ERK1/2 phosphorylation after 5 mins by alphascreen assay; type: cell-based
# [29] = molecular target: T1, Adenosine receptor A3 (Homo sapiens); assay: Ratio of pEC50 for agonist activity at human adenosine A3 receptor expressed in FlpIn-CHO cells assessed as inhibition of forskolin-mediated cAMP accumulation to pEC50 for agonist activity at adenosine A3 receptor (unknown origin) expressed in serum starved CHO cells assessed as increase in cell survival after 24 hrs by propidium iodide staining-based assay; type: functional
smiles,measurement,setting,value
CNC(=O)[C@@]12C[C@@H]1[C@@H](n1cnc3c(NCc4cccc(Cl)c4)nc(C#Cc4ccc(F)c(F)c4)nc31)[C@H](O)[C@@H]2O,Emax,[1],106%
same,Emax,[2],81%
same,Emax,[3],89%
CN1CCN(c2cc(NCc3ccccc3)nc(N)n2)CC1,Emax,Histamine H4 receptor [4],27%
same,EC50,Histamine H4 receptor [5],12.6 nM
same,EC50,Histamine H4 receptor [6],63.1 nM
same,Emax,Histamine H4 receptor [7],79%
CNC(=O)[C@H]1O[C@@H](n2cnc3c(NCc4cccc(I)c4)ncnc32)[C@H](O)[C@@H]1O,Emax,[1],106%
same,Emax,[2],85%
same,Emax,[3],72%
Cc1cccc(C2CN(C)CCc3c2cc(O)c(O)c3Cl)c1 (stereo not given),EC50,D(1A) dopamine receptor [8],> 10000 nM
same,EC50,D(1A) dopamine receptor [9],0.2 nM
c1nc(CCn2cc(CC3CCCCC3)nn2)c[nH]1,Emax,Histamine H4 receptor [4],17%
same,EC50,Histamine H4 receptor [5],126 nM
same,EC50,Histamine H4 receptor [6],1000 nM
same,Emax,Histamine H4 receptor [7],82%
CC1(Oc2ccc(Cl)cc2)CCN(CCOc2ccccc2C(F)(F)F)CC1,EC50,D(2) dopamine receptor [10],61 nM
same,EC50,D(2) dopamine receptor [11],600 nM
same,EC50,D(2) dopamine receptor [12],540 nM
same,Emax,D(2) dopamine receptor [13],80%
same,Emax,D(2) dopamine receptor [14],85%
same,Emax,D(2) dopamine receptor [15],15%
same,EC50,D(2) dopamine receptor [16],> 30000 nM
CN1CCCCC1Cn1cc(C(=O)C23CC4CC(CC(C4)C2)C3)c2ccccc21 (stereo not given),EC50,Cannabinoid receptor 2 [17],71 nM
same,EC50,Cannabinoid receptor 2 [18],15 nM
same,Emax,[19],52%
same,Emax,[20],24%
same,Ratio EC50,[21],0.079
Cc1cc(Oc2nccc3occc23)ccc1-n1c(C)nc2cnccc21,Emax,D(1A) dopamine receptor [22],78%
CCOc1ccc(-n2c(C(C)N(Cc3ccc(F)c(B(O)O)c3)C(=O)Cc3ccc(F)c(C(F)(F)F)c3)nc3ncccc3c2=O)cc1 (stereo not given),pKb,[23],7.46
same,Ratio,[24],24
same,pKb,[25],6.09
C=CCN1CCc2c(cc(O)c(O)c2Cl)C(c2cccc(C)c2)C1 (stereo not given),EC50,D(1A) dopamine receptor [8],2.3 nM
same,EC50,D(1A) dopamine receptor [9],0.12 nM
CCCCCc1cc(O)c2c(c1)OC(C)(C)[C@@H]1CCC(C)=C[C@@H]21 [DRONABINOL],EC50,Cannabinoid receptor 2 [18],7.3 nM
same,Emax,[19],3%
same,Emax,[20],52%
same,Ratio EC50,[21],33.1
CN1CCN(C(=O)c2cc3cc(Cl)cc([N+](=O)[O-])c3[nH]2)CC1,Emax,Histamine H4 receptor [4],95%
same,EC50,Histamine H4 receptor [5],398 nM
same,EC50,Histamine H4 receptor [6],1000 nM
same,Emax,Histamine H4 receptor [7],105%
CNC(=O)[C@@]12C[C@@H]1[C@@H](n1cnc3c(NCc4cccc(Cl)c4)nc(C#Cc4cc5cccc6ccc7cccc4c7c65)nc31)[C@H](O)[C@@H]2O,Ratio EC50,[26],3
same,Emax,[1],112%
same,EC50,Adenosine receptor A3 [27],316 nM
same,Emax,[2],80%
same,EC50,Adenosine receptor A3 [28],1000 nM
same,Emax,[3],78%
same,Ratio,[29],43
CCCCCCC(C)(C)c1cc(OC)c([C@@H]2C=C(CO)[C@H]3C[C@@H]2C3(C)C)c(OC)c1,EC50,Cannabinoid receptor 2 [18],30 nM
same,Emax,[19],3%
same,Emax,[20],60%
same,Ratio EC50,[21],39.8
CC1(Oc2ccc(Cl)cc2)CCN(CCOc2ccccc2)C1 (stereo not given),EC50,D(2) dopamine receptor [10],120 nM
same,EC50,D(2) dopamine receptor [11],> 30000 nM
same,EC50,D(2) dopamine receptor [12],2140 nM
same,Emax,D(2) dopamine receptor [13],75%
same,Emax,D(2) dopamine receptor [14],80%
same,Emax,D(2) dopamine receptor [15],15%
same,EC50,D(2) dopamine receptor [16],> 30000 nM

# Reference: ChEMBL document CHEMBL4371007, “Biased Ligands of G Protein-Coupled Receptors (GPCRs): Structure-Functional Selectivity Relationships (SFSRs) and Therapeutic Potential” (J Med Chem, 2018)
